Reference: patent US4731109A, “Herbicidal 2-haloacetanilides” (Monsanto Company, priority 1982, dated 1988)

What was measured:
shattercane = assay: Greenhouse pre-emergence GR15/GR85 selectivity test; format: in vivo
From the text: (§1) A good grade of top soil is placed in aluminum pans and compacted to a depth of three-eighths to one-half inch from the top of the pan. On the top of the soil is placed a number of seeds or vegetative propagules of various plant species. The soil required to level fill the pans after seeding or adding vegetative propagules is weighed into a pan. The soil and a known amount of the active ingredient applied in a solvent or as a wettable powder suspension are thoroughly mixed, and used to cover the prepared pans. […] As an alternative procedure, the overhead irrigation may be omitted. Observations are made about 2-3 weeks after seeding and treatment.
(§2) A further guide to the effectiveness of a chemical as a selective herbicide is the "selectivity factor" ("SF") for a herbicide in given crops and weeds. The selectivity factor is a measure of the relative degree of crop safety and weed injury and is expressed in terms of the GR15 /GR85 ratio, i.e., the GR15 rate for the crop divided by the GR85 rate for the weed, both rates in kg/ha (lb/A). In the tables below, selectivity factors are shown in parenthesis following the GR85 rate for each weed; the symbol "NS" indicates "non-selective". Marginal or undetermined selectivity is indicated by a dash (--).
(§3) Unless otherwise noted; greenhouse tests in Table VI and in other tables below involved herbicide treatments by soil incorporation and an initial overhead irrigation followed by subirrigation as described above.

seedling johnsongrass = assay: as above; format: in vivo
From the text: as §1, §2, §3

Texas panicum = assay: as above; format: in vivo
From the text: as §1, §2, §3

alexandergrass = assay: as above; format: in vivo
From the text: as §1, §2, §3

fall panicum = assay: as above; format: in vivo
From the text: as §1, §2, §3

red rice = assay: as above; format: in vivo
From the text: as §1, §2, §3

itchgrass = assay: as above; format: in vivo
From the text: as §1, §2, §3

Quackgrass [1] = assay: Herbicidal effect in a variety of soil types; format: in vivo; conditions: for selectivity factor (GR15/GR85): in soybeans
From the text: The herbicide treatments were by soil incorporation with seeds planted 0.375 in (0.95 cm) deep, with 0.25 in (0.64 cm overhead irrigation. Observations were made about three weeks after treatment. Selectivity factors are shown in parenthesis.

corn = assay: Greenhouse pre-emergence GR15/GR85 selectivity test; format: in vivo; conditions: Table IV
Procedure, shortened: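 Active ingredient mixed into cover soil over seeded pans (pre-emergence soil incorporation), initial overhead irrigation equal to 0.64 cm rainfall, then subirrigation. Scored about 2-3 weeks after seeding; GR15 (crop) and GR85 (weed) rates in kg/ha, selectivity factor = crop GR15 / weed GR85.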

Quackgrass [2] = assay: as above; format: in vivo
Yellow Nutsedge = assay: as above; format: in vivo; conditions: Table IV
rape = assay: as above; format: in vivo
From the text: A good grade of top soil is placed in aluminum pans and compacted to a depth of three-eighths to one-half inch from the top of the pan. On the top of the soil is placed a number of seeds or vegetative propagules of various plant species. The soil required to level fill the pans after seeding or adding vegetative propagules is weighed into a pan. The soil and a known amount of the active ingredient applied in a solvent or as a wettable powder suspension are thoroughly mixed, and used to cover the prepared pans. After treatment, the pans are given an initial overhead irrigation of eater, equivalent to one-fourth inch (0.64 cm) rainfall, then watered by subirrigation as need to give adequate moisture for germination and growth. As an alternative procedure, the overhead irrigation may be omitted. Observations are made about 2-3 weeks after seeding and treatment.
In the discussion and tables of data below, reference is made to herbicide application rates symbolized as "GR15 " and "GR85 "; these rates are given in kilograms per hectare (kg/ha) which are convertible into pounds per acre (lbs/A) by dividing the kg/ha rate by 1.12.
as §2
Additionally, pre-emergence herbicidal data from other tests have established that compounds according to this invention also selectively suppress quackgrass, yellow nutsedge and/or other weeds in one or more of the crops cotton, peanuts, bush beans and/or rape. For example, in Table VI are presented data showing the herbicidal selectivity of the compounds of Examples 1 and 2 against quackgrass in rape and snap beans. Unless otherwise noted; greenhouse tests in Table VI and in other tables below involved herbicide treatments by soil incorporation and an initial overhead irrigation followed by subirrigation as described above.
In another greenhouse test, the compounds of Examples 3-5, 9 and 10 were tested for their herbicidal efficacy against a variety of resistant annual and perennial weeds in rape.

wild proso millet = assay: as above; format: in vivo, wild proso millet (panicum milicaeum)
From the text: as §1, §2, §3

[3] = Drummer silty clay, Table XVII B
[4] = Wabash silty clay, Table XVII B
[5] = quackgrass in corn, Table IV, Replicate #1
[6] = quackgrass in corn, Table IV, Replicate #2
[7] = quackgrass in soybeans, Table IV, Replicate #1
[8] = quackgrass in soybeans, Table IV, Replicate #2
[9] = yellow nutsedge in corn, Replicate #1
[10] = yellow nutsedge in corn, Replicate #2
[11] = yellow nutsedge in soybeans, Replicate #1
[12] = yellow nutsedge in soybeans, Replicate #2
[13] = Drummer silty clay, Table XVII A

Cc1cccc(C(F)(F)F)c1N(COC(C)C)C(=O)CCl [Example 4, N--(isopropoxymethyl)-2'-trifluoromethyl-6'-methyl-2-chloroacetanilide]
GR85 Rate (shattercane; Table XVI): 0.51 Kg/Ha | selectivity factor (GR15/GR85) (shattercane; in lima beans, Table XVI): > 2.2 | selectivity factor (GR15/GR85) (shattercane; in peanuts, Table XVI): 1.9 | GR85 Rate (seedling johnsongrass; Table XVI): 0.51 Kg/Ha | selectivity factor (GR15/GR85) (seedling johnsongrass; in lima beans, Table XVI): > 2.2 | selectivity factor (GR15/GR85) (seedling johnsongrass; in peanuts, Table XVI): 1.9 | GR85 Rate (Texas panicum; Table XVI): 0.56 Kg/Ha | selectivity factor (GR15/GR85) (Texas panicum; in lima beans, Table XVI): > 2 | selectivity factor (GR15/GR85) (Texas panicum; in peanuts, Table XVI): 1.8 | GR85 Rate (alexandergrass; Table XV): 0.42 Kg/Ha | selectivity factor (GR15/GR85) (alexandergrass; in rape, Table XV): > 2.7 | GR85 Rate (fall panicum; Table XVI): 0.13 Kg/Ha | selectivity factor (GR15/GR85) (fall panicum; in lima beans, Table XVI): > 8.6 | selectivity factor (GR15/GR85) (fall panicum; in peanuts, Table XVI): 7.5 | GR85 Rate (red rice; Table XVI): 0.42 Kg/Ha | selectivity factor (GR15/GR85) (red rice; in lima beans, Table XVI): > 2.7 | selectivity factor (GR15/GR85) (red rice; in peanuts, Table XVI): 2.3 | GR85 Rate (itchgrass; Table XVI): 0.50 Kg/Ha | selectivity factor (GR15/GR85) (itchgrass; in lima beans, Table XVI): > 2.2 | selectivity factor (GR15/GR85) (itchgrass; in peanuts, Table XVI): 2 | GR85 (Quackgrass [1]; [3]): 0.11 Kg/Ha | GR85 (Quackgrass [1]; Florida muck, Table XVII B): 0.67 Kg/Ha | GR85 (Quackgrass [1]; Florida sand, Table XVII B): 0.25 Kg/Ha | GR85 (Quackgrass [1]; Ray silt loam, Table XVII B): 0.13 Kg/Ha | GR85 (Quackgrass [1]; Sarpy silty clay, Table XVII B): 0.39 Kg/Ha | GR85 (Quackgrass [1]; [4]): 0.24 Kg/Ha | selectivity factor (GR15/GR85) (Quackgrass [1]; [3]): 20 | selectivity factor (GR15/GR85) (Quackgrass [1]; Florida muck, Table XVII B): > 3 | selectivity factor (GR15/GR85) (Quackgrass [1]; Florida sand, Table XVII B): 9 | selectivity factor (GR15/GR85) (Quackgrass [1]; Ray silt loam, Table XVII B): 23 | selectivity factor (GR15/GR85) (Quackgrass [1]; Sarpy silty clay, Table XVII B): 5.5 | selectivity factor (GR15/GR85) (Quackgrass [1]; [4]): 12.5 | GR15 (corn; Replicate #1): 1.7 Kg/Ha | GR15 (corn; Replicate #2): 2.0 Kg/Ha | GR85 (Quackgrass [2]; Table IV, Replicate #1): 0.33 Kg/Ha | GR85 (Quackgrass [2]; Table IV, Replicate #2): 0.18 Kg/Ha | selectivity factor (GR15/GR85) (Quackgrass [2]; [5]): 5 | selectivity factor (GR15/GR85) (Quackgrass [2]; [6]): 11 | selectivity factor (GR15/GR85) (Quackgrass [2]; [7]): 3 | selectivity factor (GR15/GR85) (Quackgrass [2]; [8]): 9.5 | GR85 (Yellow Nutsedge; Replicate #1): 0.28 Kg/Ha | GR85 (Yellow Nutsedge; Replicate #2): 0.22 Kg/Ha | selectivity factor (GR15/GR85) (Yellow Nutsedge; [9]): 6 | selectivity factor (GR15/GR85) (Yellow Nutsedge; [10]): 8.5 | selectivity factor (GR15/GR85) (Yellow Nutsedge; [11]): 4 | selectivity factor (GR15/GR85) (Yellow Nutsedge; [12]): 7.5 | GR15 Rate (rape; Table XV): > 1.12 Kg/Ha | GR85 Rate (wild proso millet; Table XVI): 0.47 Kg/Ha | selectivity factor (GR15/GR85) (wild proso millet; in lima beans, Table XVI): > 2.4 | selectivity factor (GR15/GR85) (wild proso millet; in peanuts, Table XVI): 2.1

CC(C)OCN(C(=O)CCl)c1ccccc1C(F)(F)F [Example 2, N--(isopropoxymethyl)-2'-trifluoromethyl-2-chloroacetanilide]
GR85 Rate (shattercane; Table XIV): 0.93 Kg/Ha | selectivity factor (GR15/GR85) (shattercane; in soybeans, Table XIV): > 1.12 | GR85 Rate (seedling johnsongrass; Table XIV): 0.28 Kg/Ha | selectivity factor (GR15/GR85) (seedling johnsongrass; in soybeans, Table XIV): > 4.0 | GR85 Rate (Texas panicum; Table XIV): > 1.12 Kg/Ha | GR85 Rate (alexandergrass; Table XIV): > 1.1 Kg/Ha | GR85 Rate (fall panicum; Table XIV): < 0.07 Kg/Ha | selectivity factor (GR15/GR85) (fall panicum; in soybeans, Table XIV): > 16 | GR85 Rate (red rice; Table XIV): 0.14 Kg/Ha | selectivity factor (GR15/GR85) (red rice; in soybeans, Table XIV): > 8.0 | GR85 Rate (itchgrass; Table XIV): > 1.1 Kg/Ha | GR85 (Quackgrass [1]; [13]): 0.56 Kg/Ha | GR85 (Quackgrass [1]; Florida muck, Table XVII A): 0.95 Kg/Ha | GR85 (Quackgrass [1]; Florida sand, Table XVII A): 0.22 Kg/Ha | GR85 (Quackgrass [1]; Ray silt loam, Table XVII A): 0.28 Kg/Ha | GR85 (Quackgrass [1]; Sarpy silty clay, Table XVII A): 0.43 Kg/Ha | GR85 (Quackgrass [1]; Wabash silty clay, Table XVII A): 0.34 Kg/Ha | selectivity factor (GR15/GR85) (Quackgrass [1]; [13]): > 4 | selectivity factor (GR15/GR85) (Quackgrass [1]; Florida muck, Table XVII A): > 2 | selectivity factor (GR15/GR85) (Quackgrass [1]; Florida sand, Table XVII A): 7.5 | selectivity factor (GR15/GR85) (Quackgrass [1]; Ray silt loam, Table XVII A): 8 | selectivity factor (GR15/GR85) (Quackgrass [1]; Sarpy silty clay, Table XVII A): > 5 | GR15 (corn; Replicate #1): 3.1 Kg/Ha | GR15 (corn; Replicate #2): 0.78 Kg/Ha | GR85 (Quackgrass [2]; Table IV, Replicate #1): 0.26 Kg/Ha | GR85 (Quackgrass [2]; Table IV, Replicate #2): 0.22 Kg/Ha | GR85 Rate (Quackgrass [2]; Table VI): 0.28 Kg/Ha | selectivity factor (GR15/GR85) (Quackgrass [2]; [5]): 12 | selectivity factor (GR15/GR85) (Quackgrass [2]; [6]): 3.5 | selectivity factor (GR15/GR85) (Quackgrass [2]; quackgrass in rape, Table VI): 7 | selectivity factor (GR15/GR85) (Quackgrass [2]; quackgrass in snapbeans, Table VI): 8 | selectivity factor (GR15/GR85) (Quackgrass [2]; [7]): 6.5 | selectivity factor (GR15/GR85) (Quackgrass [2]; [8]): 7.5 | GR85 (Yellow Nutsedge; Replicate #1): 0.17 Kg/Ha | GR85 (Yellow Nutsedge; Replicate #2): 0.20 Kg/Ha | selectivity factor (GR15/GR85) (Yellow Nutsedge; [9]): 18 | selectivity factor (GR15/GR85) (Yellow Nutsedge; [10]): 4 | selectivity factor (GR15/GR85) (Yellow Nutsedge; [11]): 10 | selectivity factor (GR15/GR85) (Yellow Nutsedge; [12]): 8.5 | GR15 Rate (rape; Table VI): 1.9 Kg/Ha | GR85 Rate (wild proso millet; Table XIV): 1.1 Kg/Ha | selectivity factor (GR15/GR85) (wild proso millet; in soybeans, Table XIV): > 1.0
